Test results published in patent US20250228806A1, “AMPK ACTIVATOR, MOTOR FUNCTION IMPROVING AGENT, MUSCULAR ENDURANCE IMPROVING AGENT, AND MUSCLE ATROPHY PREVENTING AGENT” (MARUZEN PHARMACEUTICALS CO., LTD., priority 2021, published 2025).

Tests used:
rat muscle atrophy model = assay: Muscle atrophy preventing action test (hindlimb suspension); assay type: in vivo
Protocol: Using the compound (I) (Sample 1), the muscle atrophy preventing action on a rat muscle atrophy model was tested in the following manner. Eight-week-old male Crlj:WI rats (purchased from Charles River Laboratories Japan, Inc.) were reared in an maintained environment of controlled temperature: 20.0-26.0° C., controlled humidity: 40.0-70.0% RH, light and dark for 12 hours each, and ventilation frequency: 12 times/hour. During the rearing period, solid feed (CRF-1, available from Oriental Yeast Co., Ltd.) was placed in a feeder and consumed ad libitum. However, during the hindlimb suspension rearing period described below, the rats were allowed to consume the feed by scattering it on the floor. For drinking water, tap water was available ad libitum using a water bottle. After a 5-day quarantine period and a 2-day acclimatization period, the rats were grouped with 8 rats per group as listed in Table 1 by random sampling so that the average weight and variance of each group were approximately equal. The rats were put into a state in which the tails of the rats were attached to a rail on the ceiling with a rat tail suspension clip and the hindlimbs of the rats were off the floor (hindlimb suspension), and muscle atrophy was induced in this state by rearing the rats for 14 days after the grouping on the grouping day. During the period of rearing with suspended hindlimbs, the rats were able to move within the rearing cage using their forelimbs, and were able to freely consume water and feed. The compound (I) (Sample 1) was dissolved in water for injection and administered orally by force using a syringe to which a feeding needle was attached. The grouping day was taken as the first day (day 1 of administration), the administration was performed once a day for 14 days, and the day after the 14th day of administration (day 15 of administration) was the last day of the rearing period. On the last day of the hindlimb suspension rearing (day 15 of administration), blood was collected from the abdominal aorta using a heparin-Na treated vacuum blood collection tube and a winged intravenous needle under isoflurane anesthesia. After blood collection, the rats were euthanized by exsanguination from the abdominal aorta, and the right and left gastrocnemius and soleus muscles were extracted. The extracted gastrocnemius and soleus muscles were weighed separately on the right and left sides (the values in Table 2 are the total values).

Akt = assay: Kinase activation analysis in muscle atrophy model: Akt phosphorylation (Luminex); assay type: in vivo, rat; details: gastrocnemius muscle
Protocol: (§1) For the gastrocnemius muscle extracted in Testing Example 1 above, the phosphorylation state of AMPK and Akt, which are kinases contributing to increase in muscle mass, was evaluated by Luminex measurement and ELISA measurement.
(§2) The tissue of the gastrocnemius muscle extracted in Testing Example 1 above was fragmented, and a tissue extract was collected. The total protein concentration was quantified and used for Luminex measurement and ELISA measurement described below so that the total protein amount was 10 μg per well.
For Akt, MILLIPLEX® MAP Phospho/Total Akt 2-Plex Magnetic Bead Kit 96-well Plate Assay (available from EMD Millipore, catalog number: 48-618MAG) was used to measure the total Akt amount (t-Akt) and the phosphorylated Akt (p-Akt, Ser473) all at once in one reaction system.
(§3) As an internal standard, GAPDH was measured using Total GAPDH Magnetic Bead MAPmate™ (available from EMD Millipore, catalog number: 46-667MAG), and the measured values of the above AMPK and Akt were standardized.

[1] = system: GLUT4 (Gene Symbol: Slc2a4); assay: Gene expression analysis (real-time PCR) in gastrocnemius muscle of muscle atrophy model: GLUT4; assay type: in vivo, rat
Protocol: (§4) A gene expression analysis test using real-time PCR was conducted on the gastrocnemius muscle extracted in Testing Example 1 above. The tissue of the gastrocnemius muscle extracted in Testing Example 1 above was fragmented, and total RNA was extracted using RNeasy® Lipid Tissue Mini Kit (available from Qiagen). The obtained total RNA was quantified using a spectrophotometer, and the total RNA was prepared to be 71.4 ng/μL. Using 1000 ng of the total RNA as a template, a reverse transcription reaction was performed using SuperScript® VILO™ CDNA Synthesis Kit (available from Thermo Fisher Scientific). The reaction solution was 20 μL, and the operation was based on the manual attached to the above kit. […] Assay mixes corresponding to the genes to be analyzed were prepared for respective genes using corresponding Taqman® Gene Expression Assays (the assay ID for each gene is described previously). […] After the reaction was completed, the Ct value was calculated using analysis software (Fluidigm Real Time PCR Analysis 4.5.2, available from Fluidigm). The obtained Ct value of each gene was standardized with the Ct value of the internal standard gene GAPDH, and the relative value was calculated when the first group (control group) was set as the standard (1.00).

[2] = system: Atrogin-1 (Gene Symbol: Fbxo32); assay: Gene expression analysis (real-time PCR) in gastrocnemius muscle of muscle atrophy model: Atrogin-1; assay type: in vivo, rat
Protocol: as §4

[3] = system: MuRF-1 (Gene Symbol: Trim63); assay: Gene expression analysis (real-time PCR) in gastrocnemius muscle of muscle atrophy model: MuRF-1; assay type: in vivo, rat
Protocol: as §4

IL-6 (Gene Symbol: Il6) = assay: Gene expression analysis (real-time PCR) in gastrocnemius muscle of muscle atrophy model: IL-6; assay type: in vivo, rat
Protocol: as §4

AMPK = assay: Kinase activation analysis in muscle atrophy model: AMPK phosphorylation (ELISA); assay type: in vivo, rat; details: gastrocnemius muscle
Protocol: as §1, §2
For AMPK, PathScan® Total AMPKα Sandwich ELISA Kit (available from Cell Signaling Technology, catalog number: 7961C) was used to measure the total AMPK (t-AMPK), and PathScan® Phospho-AMPKα (Thr172) ELISA Sandwich Kit (available from Cell Signaling Technology, catalog number: 7959C) was used to measure the Thr172 phosphorylated AMPK (p-AMPK).
as §3

[4] = system: PGC-1α (Gene Symbol: Ppargc1a); assay: Gene expression analysis (real-time PCR) in gastrocnemius muscle of muscle atrophy model: PGC-1α; assay type: in vivo, rat
Protocol: as §4

[5] = administration group 125 mg/kg vs control group
[6] = 125 mg/kg orally 14 days, standardized with GAPDH

## COc1cc(CCC(=O)O)ccc1O [compound (I), 3-(4-hydroxy-3-methoxyphenyl) propionic acid]
Rat muscle atrophy model; [5]
  difference in body weight between groups (in words): no difference was observed
  weight of the gastrocnemius muscle compared to control group (in words): increased
  weight of the soleus muscle compared to control group (in words): increased
Rat muscle atrophy model; administration of 125 mg/kg, rat muscle atrophy model
  muscle mass (in words): increased
Rat muscle atrophy model; hindlimb-suspended rats, 125 mg/kg orally once a day for 14 days, day 15, control 2.50
  Gastrocnemius muscle (total of right and left) weight: 2.69 g
Rat muscle atrophy model; hindlimb-suspended rats, 125 mg/kg orally once a day for 14 days, day 15, control 130.3
  Soleus muscle (total of right and left) weight: 149.1 mg
Rat muscle atrophy model; hindlimb-suspended rats, 125 mg/kg orally once a day for 14 days, day 15, control 310
  Body weight: 309 g
Akt; 125 mg/kg orally 14 days, Ser473, standardized with GAPDH, control group 100.0
  p-Akt/t-Akt: 172.9
Akt; administration group 125 mg/kg
  phosphorylated form of Akt compared to control group (in words): tendency to increase
[1]; [6]
  GLUT4 (Slc2a4) gene expression, relative value (control group = 1.00): 1.13
[1]; administration group 125 mg/kg
  GLUT4 gene expression compared to control group (in words): tendency to increase
[2]; [6]
  Atrogin-1 (Fbxo32) gene expression, relative value (control group = 1.00): 0.68
[2]; administration group 125 mg/kg
  Atrogin-1 gene expression compared to control group (in words): tendency to decrease
[3]; [6]
  MuRF-1 (Trim63) gene expression, relative value (control group = 1.00): 0.81
[3]; administration group 125 mg/kg
  MuRF-1 gene expression compared to control group (in words): tendency to decrease
IL-6 (Gene Symbol: Il6); [6]
  IL-6 (Il6) gene expression, relative value (control group = 1.00): 1.10
IL-6 (Gene Symbol: Il6); administration group 125 mg/kg
  IL-6 gene expression compared to control group (in words): tendency to increase
AMPK; 125 mg/kg orally 14 days, Thr172, standardized with GAPDH, control group 100.0
  p-AMPK/t-AMPK: 120.8
AMPK; administration group 125 mg/kg
  phosphorylated form of AMPK compared to control group (in words): tendency to increase
[4]; [6]
  PGC-1α (Ppargc1a) gene expression, relative value (control group = 1.00): 1.28
[4]; administration group 125 mg/kg
  PGC-1α gene expression compared to control group (in words): tendency to increase
